Where two headings read alike, the source gives them in different places. Starred links: 1 amine or outer side, 2 acyl side, 3 side chain; linkers in the order of their positions; H or OH if unused. Positions of bridges follow the written chain, without caps; N, C: chain ends. Residues, ends and D or L forms follow the SMILES beside them. *: point of attachment. C20 diacid = O=C(O)CCCCCCCCCCCCCCCCCCC(=O)*; γGlu = O=C(O)[C@H](CCC(=O)[*:2])N[*:1]
Tests used:
[1] = Assay (III) ThT fibrillation assay for physical stability; format: physicochemical
Method in brief: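 Freshly prepared formulations, pH-adjusted, with 1 μM ThT; four or eight replicates incubated at 37 °C under 960 rpm orbital shaking. Fluorescence (ex 444/em 485 nm) read every 20 min; […]. Peptide concentration measured by RP-HPLC before and after the run.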

food intake = experiment: Assay (I) efficacy testing on appetite (food intake), ad libitum fed rat model; format: in vivo, Sprague Dawley (SD) rats
Text: In the following examples reference is made to the following Assays: • Assay (I)— Experimental protocol for efficacy testing on appetite using an ad libitum fed rat model • ASSAY (II)a—Functional assay—Human calcitonin and amylin receptor assay • ASSAY (II)b—Functional assay—Rat calcitonin and rat amylin receptor assays • ASSAY (III)—ThT fibrillation assays for the assessment of physical stability of protein formulations • ASSAY (IV)—Determination of solubility • ASSAY (V)—Determination of binding to the human amylin receptor • ASSAY (VI)—Determination of the binding to the rat amylin receptor • ASSAY (VII)—Determination of binding to the human calcitonin receptor • ASSAY (VIII)—Determination of binding to the rat calcitonin receptor • ASSAY (IX)—pK—Determination of T % in mini-pig • ASSAY (X)—pK—Determination of T % in rat ASSAY (I)—Experimental Protocol for Efficacy Testing on Appetite Using an Ad Libitum Fed Rat Model
Sprague Dawley (SD) rats from Taconic Europe, Denmark are used for the experiments. The rats have a body weight 200-250 g at the start of experiment. The rats arrive at least 10-14 days before start of experiment to allow acclimatization to experimental settings. During this period the animals are handled at least 2 times. After arrival rats are housed individually for one week in a reversed light/dark phase (meaning that lights are off during daytime and on during nighttime) […]. Since rats are normally active and eat their major part of their daily food intake during the dark period, rats are dosed in the morning right before lights are turned off. This set-up results in the lowest data variation and highest test sensitivity. The experiment is conducted in the rats' home cages and rats have free access to food and water throughout the acclimatization period and the experiment period. Each dose of derivative is tested in a group of 5-8 rats. A vehicle group of 6-8 rats is included in each set of testing. Rats are dosed once according to body weight with a 0.01-3 mg/kg solution administered intraperitoneally (ip), orally (po) or subcutaneously (sc). The time of dosing is recorded for each group. After dosing, the rats are returned to their home cages, where they then have access to food and water. The food consumption is recorded individually continuously by on-line registration or manually every hour for 7 hours, and then after 24 h and sometimes 48 h. At the end of the experimental session, the animals are euthanised.
The individual data are recorded in Microsoft excel sheets. Outliers are excluded after applying the Grubbs statistical evaluation test for outliers, and the result is presented graphically using the GraphPad Prism program.

[2] = Assay (IV) determination of solubility; format: physicochemical
Method in brief: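 Polypeptide in water (~500 nmol/ml stock) was mixed 1:1 with 100 mM buffers from pH 3.0 to 8.0 (glycylglycine pH 3.0–5.0; bistrispropane pH 6.0–8.0). After 18 hours at room temperature, samples were centrifuged and the polypeptide remaining in solution was quantified by HPLC.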

[3] = target: T1, human amylin receptor (amylin 3(a) receptor: human calcitonin receptor + RAMP-3) (Homo sapiens, UniProt O60896+P30988); experiment: Assay (II)a functional CRE-luciferase assay, human amylin receptor; format: cell-based; conditions: Table 2; BHK amylin 3(a)-receptor/CRE-luc cells
T1 construct: expressed in transfected cells; host or cells: BHK570
T1 sequence (P30988 25-474): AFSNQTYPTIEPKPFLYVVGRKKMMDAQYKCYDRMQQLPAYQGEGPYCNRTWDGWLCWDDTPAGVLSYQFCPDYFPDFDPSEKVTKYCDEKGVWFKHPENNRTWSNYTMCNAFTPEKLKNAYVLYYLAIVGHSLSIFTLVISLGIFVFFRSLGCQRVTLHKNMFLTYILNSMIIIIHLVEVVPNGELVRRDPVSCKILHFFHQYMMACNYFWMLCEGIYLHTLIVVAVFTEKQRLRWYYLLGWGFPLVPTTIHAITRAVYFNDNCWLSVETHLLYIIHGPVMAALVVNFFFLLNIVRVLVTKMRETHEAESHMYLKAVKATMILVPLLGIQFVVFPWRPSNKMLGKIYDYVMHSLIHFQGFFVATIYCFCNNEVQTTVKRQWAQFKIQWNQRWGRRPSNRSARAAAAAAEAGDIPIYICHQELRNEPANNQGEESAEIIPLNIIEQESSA
T1 sequence (O60896 24-148 partner): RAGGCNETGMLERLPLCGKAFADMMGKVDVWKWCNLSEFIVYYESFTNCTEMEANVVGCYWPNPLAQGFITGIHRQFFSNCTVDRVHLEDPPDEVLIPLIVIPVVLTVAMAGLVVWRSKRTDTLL

[4] = target: T2, human calcitonin receptor (Homo sapiens, UniProt P30988); experiment: Assay (II)a functional CRE-luciferase assay, human calcitonin receptor; format: cell-based; conditions: Table 11; read-out: CTa receptor human EC50
T2 construct: expressed in transfected cells; host or cells: BHK570
T2 sequence (P30988 25-474): T1 sequence (P30988 25-474)

SMILES: CC[C@H](C)[C@H](NC(=O)[C@@H]1CCCN1C(=O)CNC(=O)[C@H](Cc1ccccc1)NC(=O)[C@H](CC(N)=O)NC(=O)[C@H](CC(N)=O)NC(=O)[C@H](CO)NC(=O)[C@H](CO)NC(=O)[C@H](Cc1c[nH]cn1)NC(=O)[C@H](Cc1c[nH]cn1)NC(=O)[C@H](CC(C)C)NC(=O)[C@H](Cc1ccccc1)NC(=O)[C@H](CCC(=O)O)NC(=O)[C@H](C)NC(=O)[C@H](CC(C)C)NC(=O)[C@H](CCCNC(=N)N)NC(=O)[C@H](CCC(N)=O)NC(=O)[C@@H](NC(=O)[C@H](C)NC(=O)[C@@H]1CSSC[C@H](NC(=O)CC[C@H](NC(=O)CCCCCCCCCCCCCCCCCCC(=O)O)C(=O)O)C(=O)N[C@@H](CC(N)=O)C(=O)N[C@@H]([C@@H](C)O)C(=O)N[C@@H](C)C(=O)N[C@@H]([C@@H](C)O)C(=O)N1)[C@@H](C)O)C(=O)N[C@@H](CC(C)C)C(=O)N1CCC[C@H]1C(=O)N1CCC[C@H]1C(=O)N[C@H](C(=O)N[C@@H](CC(N)=O)C(=O)N[C@H](C(=O)NCC(=O)N[C@@H](CO)C(=O)N[C@@H](CC(N)=O)C(=O)N[C@H](C(=O)N[C@@H](Cc1ccc(O)cc1)C(N)=O)[C@@H](C)O)C(C)C)[C@@H](C)O [Example 28, N-alpha-[(S)-4-Carboxy-4-(19-carboxynonadecanoylamino)butyryl]-[des1,Glu14,His17]-pramlintide] ({C20 diacid-γGlu}-CNTATCATQRLAEFLHHSSNNFGPILPPTNVGSNTY-NH2; disulfide 1-6 (inferred))
- ThT pH 4.0 lag time (h) ([1]; ThT fibrillation assay): 9.3 h
- Food intake reduction 0-24 h 3 nmol/kg (%) (food intake; 0-24 h): 39%
- Food intake reduction 24-48 h 3 nmol/kg (%) (food intake; 24-48 h): 36%

SMILES: CC[C@H](C)[C@H](NC(=O)[C@@H]1CCCN1C(=O)CNC(=O)[C@H](Cc1ccccc1)NC(=O)[C@H](CC(N)=O)NC(=O)[C@H](CC(N)=O)NC(=O)[C@H](CO)NC(=O)[C@H](CO)NC(=O)[C@H](Cc1c[nH]cn1)NC(=O)[C@H](Cc1c[nH]cn1)NC(=O)[C@H](CC(C)C)NC(=O)[C@H](Cc1ccccc1)NC(=O)[C@H](CCC(=O)O)NC(=O)[C@H](C)NC(=O)[C@H](CC(C)C)NC(=O)[C@H](CCCNC(=N)N)NC(=O)[C@H](CCC(N)=O)NC(=O)[C@@H](NC(=O)[C@H](C)NC(=O)[C@@H]1CSSC[C@H](NC(=O)[C@H](CCCCN)NC(=O)CC[C@H](NC(=O)CCCCCCCCCCCCCCCCCCC(=O)O)C(=O)O)C(=O)N[C@@H](CC(N)=O)C(=O)N[C@@H]([C@@H](C)O)C(=O)N[C@@H](C)C(=O)N[C@@H]([C@@H](C)O)C(=O)N1)[C@@H](C)O)C(=O)N[C@@H](CC(C)C)C(=O)N1CCC[C@H]1C(=O)N1CCC[C@H]1C(=O)N[C@H](C(=O)N[C@@H](CC(N)=O)C(=O)N[C@H](C(=O)NCC(=O)N[C@@H](CO)C(=O)N[C@@H](Cc1c[nH]cn1)C(=O)N[C@H](C(=O)N[C@@H](Cc1ccc(O)cc1)C(N)=O)[C@@H](C)O)C(C)C)[C@@H](C)O [Example 55, N-alpha-[(S)-4-Carboxy-4-(19-carboxynonadecanoylamino)butyryl]-[Glu14,His17,His35]-pramlintide] ({C20 diacid-γGlu}-KCNTATCATQRLAEFLHHSSNNFGPILPPTNVGSHTY-NH2; disulfide 2-7 (inferred))
- ThT pH 4.0 lag time ([1]; ThT fibrillation assay): 37 h
- ThT pH 4.0 lag time (h) ([1]; ThT fibrillation assay): 37 h
- Food intake reduction 0-24 h 3 nmol/kg (%) (food intake; 0-24 h): 58%
- Food intake reduction 0-24 h 30 nmol/kg (%) (food intake; 0-24 h, 30 nmol/kg): 88%
- Food intake reduction 24-48 h 3 nmol/kg (%) (food intake; 24-48 h): 40%
- Food intake reduction 24-48 h 30 nmol/kg (%) (food intake; 24-48 h, 30 nmol/kg): 90%

SMILES: CC[C@H](C)[C@H](NC(=O)[C@@H]1CCCN1C(=O)CNC(=O)[C@H](Cc1ccccc1)NC(=O)[C@H](CC(N)=O)NC(=O)[C@H](CCC(N)=O)NC(=O)[C@H](CO)NC(=O)[C@H](CO)NC(=O)[C@H](Cc1c[nH]cn1)NC(=O)[C@H](CCCNC(=N)N)NC(=O)[C@H](CC(C)C)NC(=O)[C@H](Cc1ccccc1)NC(=O)[C@H](CCC(=O)O)NC(=O)[C@H](C)NC(=O)[C@H](CC(C)C)NC(=O)[C@H](CCCNC(=N)N)NC(=O)[C@H](CCC(N)=O)NC(=O)[C@@H](NC(=O)[C@H](C)NC(=O)[C@@H]1CSSC[C@H](NC(=O)[C@H](CCC(=O)O)NC(=O)[C@H](CCCNC(=N)N)NC(=O)[C@H](CCC(=O)O)NC(=O)CC[C@H](NC(=O)CCCCCCCCCCCCCCCCCCC(=O)O)C(=O)O)C(=O)N[C@@H](CC(N)=O)C(=O)N[C@@H]([C@@H](C)O)C(=O)N[C@@H](C)C(=O)N[C@@H]([C@@H](C)O)C(=O)N1)[C@@H](C)O)C(=O)N[C@@H](CC(C)C)C(=O)N1CCC[C@H]1C(=O)N1CCC[C@H]1C(=O)N[C@H](C(=O)N[C@@H](CCC(N)=O)C(=O)N[C@H](C(=O)NCC(=O)N[C@@H](CO)C(=O)N[C@@H](CCC(N)=O)C(=O)N[C@H](C(=O)N1CCC[C@H]1C(N)=O)[C@@H](C)O)C(C)C)[C@@H](C)O [Example 163, N-alpha-[(S)-4-Carboxy-4-(19-carboxynonadecanoylamino)butyryl]-Glu-Arg-[Glu1,Glu14,Arg17,Gln21,Gln31,Gln35,Pro37]-pramlintide] ({C20 diacid-γGlu}-ERECNTATCATQRLAEFLRHSSQNFGPILPPTQVGSQTP-NH2; disulfide 4-9)
- solubility at 18 h ([2]; bistrispropane buffer, pH 6, pH 6.0, read-out: Solubility pH 6.0): > 200 µM
- solubility at 18 h ([2]; bistrispropane buffer, pH 6.5, pH 6.5, read-out: Solubility pH 6.5): > 200 µM
- solubility at 18 h ([2]; bistrispropane buffer, pH 7, pH 7.0, 18 hours at room temperature, Table 3, read-out: Solubility pH 7.0): > 200 µM
- solubility at 18 h ([2]; bistrispropane buffer, pH 7, pH 7.0, Table 8, read-out: Solubility pH 7.0): > 200 µM
- solubility at 18 h ([2]; bistrispropane buffer, pH 7, pH 7.0, Table 9, read-out: Solubility pH 7.0): > 200 µM
- solubility at 18 h ([2]; bistrispropane buffer, pH 7, pH 7.0, read-out: Solubility pH 7.0): > 200 µM
- solubility at 18 h ([2]; bistrispropane buffer, pH 7.5, pH 7.5, Table 9, read-out: Solubility pH 7.5): > 200 µM
- solubility at 18 h ([2]; bistrispropane buffer, pH 7.5, pH 7.5, read-out: Solubility pH 7.5): > 200 µM
- solubility at 18 h ([2]; bistrispropane buffer, pH 8, pH 8.0, read-out: Solubility pH 8.0): > 200 µM
- solubility at 18 h ([2]; glycylglycine buffer, pH 3, pH 3.0, read-out: Solubility pH 3.0): > 200 µM
- solubility at 18 h ([2]; glycylglycine buffer, pH 4, pH 4.0, 18 hours at room temperature, Table 2, read-out: Solubility pH 4.0): > 200 µM
- solubility at 18 h ([2]; glycylglycine buffer, pH 4, pH 4.0, read-out: Solubility pH 4.0): > 200 µM
- solubility at 18 h ([2]; glycylglycine buffer, pH 5, pH 5.0, read-out: Solubility pH 5.0): > 200 µM
- ThT pH 4.0 lag time ([1]; Table 8): >45 h
- ThT pH 4.0 lag time ([1]; Table 9): >45 h
- ThT pH 4.0 lag time ([1]; ThT fibrillation assay): >45 h
- ThT pH 4.0 lag time (h) ([1]; ThT fibrillation assay): >45 h
- EC50 [3]: 1.06 nM
- EC50 [4]: 3.71 nM
